Experimental data published in patent US12351819B2, “Method for removing undifferentiated pluripotent stem cells” (priority 2017, dated 2025).

What was measured:
[1] = test system: hiPSCs; conditions: for cytotoxicity (LDH release) in hiPSCs: 2.5 μM, 24 hours; for LDH assay positive, hiPSCs: Table 1
Experimental: The supernatants of cells treated with digoxin […], lanatoside C 2.5 μm, or DMSO solvent control for 24 hours were harvested. The released LDH was measured using CytoTox 96 […] assay according to the manufacture's instruction (Promega, Southampton, UK). The supernatants and reagents were incubated at room temperature for 20 minutes and then the reaction was stopped by Stop Solution. The absorbance at 490 nm was measured using a plate-reading spectrophotometer (Benchmark Plus Microplate Spectrophotometer System, BIO-RAD, CA, USA).
hiPSC-derived endothelial cells were prepared according in a previous report^34. The hiPSCs were maintained in mTeSR 1 medium ([…] Technologies, Vancouver, Canada) on VTN-N coated plates (Thermo, Wilmington, DE, USA). First, for the stepwise induction of differentiation, we performed a mesoderm induction of hiPSCs seeded in mesoderm induction medium for 48 hours (basal medium with […], […], and 2 ng/ml of Activin A; basal medium was composed of 12 g/L of DMEM/F-12, 3.56 g/L of HEPES, 1.742 g/L of sodium bicarbonate, 14 μg/L of sodium selenite, 10.7 mg/L of recombinant transferrin, 19.4 mg/L of recombinant insulin, and 64 mg/L of L-Ascorbic acid 2-phosphate sesquimagnesium salt hydrate). Second, for the mesoderm to endothelium transition, mesoderm cells were reseeded in vasculogenic medium (basal medium with 2 mg/ml of PVA plus 20 ng/ml of hVEGF-A) for an additional 72 hours. All differentiated cells were plated on VTN pre-coated culture plate dishes. The endothelial cells were analyzed on day 5 by flow cytometry staining with the CD31 (PECAM1, ThermoFisher Scientific, Wilmington, DE, USA) and CD144 (CDH5, ThermoFisher Scientific) antibodies.

[2] = test system: hBMMSCs; assay: Cell morphology under bright field, hBMMSCs; assay type: cell-based, human; conditions: 2.5 μM, 12 hours and 24 hours
Text: Scale bar: 500 μm. […] The samples were normalized to the DMSO-treated hESCs. ***P<0.001; **P<0.01; n.s. not significant. Data are shown as the mean SD.

[3] = test system: cleaved PARP, caspase3, caspase7 in hESC-MSCs; assay: Western blot of apoptotic markers, hESC-MSCs; assay type: cell-based, human; conditions: 2.5 μM, 12 hours
Experimental: (§1) RIPA buffer was used to harvest cell lysates (RIPA buffer: NaCl 150 mM, Tris pH 8.0 50 mM, EDTApH 8.0 5 mM, NP-40 1.0%, SDS 0.5%, sodium deoxycholate 0.1%). Western blot analyses were performed as previously described with different types of primary antibodies^29. The primary antibody includes anti-β-actin (A5441; Sigma), anti-Oct4 (sc-9081; Santa Cruz Biotechnology, Santa Cruz, CA, USA), anti-Nanog (3580; Cell Signaling Technology, Danvers, MA, USA), apoptosis antibody kit (9915; Cell Signaling Technology), ATP1A1 (3010; Cell Signaling Technology), and ATP1A2 (16836-1-AP; Proteintech™) were used. After reaction at 4° C. overnight, the blots were incubated with goat anti-mouse- or goat anti-rabbit antibody conjugated with horseradish peroxidase (Jackson ImmunoResearch Inc). The chemiluminescent substrate (WBKLS0500; Millipore, Darmstadt, Germany) was used to detect the blots. Fujifilm LAS-4000 (FUJIFILM, Tokyo, Japan) was used to take the images.

[4] = test system: hESCs teratoma formation; assay: In vivo tumorigenicity assay (teratoma formation of treated hESCs); conditions: hESCs treated 24 hours before subcutaneous injection into NSG mice; 8 weeks; vs DMSO
Experimental: Approximately 10^6 treated cells were mixed with 10^5 MEFs to promote teratoma formation in 50 μl PBS^32. The cells mixture and 1× Matrigel Matrix was mixed well and the cells were subcutaneously injected into NOD scid gamma mice (NSG mice) for 8 weeks. After 8 weeks, animals were sacrificed and teratoma was removed, fixed in 10% formalin, embedded in paraffin and stained with hematoxylin and eosin. H&E stain protocol was modified from previous study^33. For immunohistochemistry, teratoma sections were blocked using 5% milk for 1 hour, and stained with primary antibody at 4° C. overnight, follow by secondary antibody (Dako, Santa Clara, CA, USA) for 1 hour at RT and DAB enhancer (Dako). Primary antibody: anti-human alpha-1-fetoprotein (A0008, Dako) for endoderm lineage; anti-human smooth muscle actin, clone 1A4 (M0851, Dako) for mesoderm lineage; anti-Tuj1 (MAB1637, EMD Millipore, Darmstadt, Germany) for ectoderm.

[5] = test system: hESCs; assay: Alamar blue assay, hESCs; assay type: cell-based, human; conditions: FIG. 12
Experimental: Alamar blue assay measured the relative cell number. In the cells, we added 1/10 of Alamar Blue Viability Assay reagent to the total volume of the mixture (Biotium; Fremont, CA, USA). The cells were incubated overnight at 37° C. The resulted were quantified by the measurement of optical density (OD) absorbance values at 570 nm and 600 nm, and the relative cell number was calculated.

[6] = test system: hBMMSCs; assay: Osteogenic differentiation and Alizarin Red S staining; assay type: cell-based, human; conditions: 2.5 μM 24 hours, drug removed; Alizarin Red S O.D 570 nm
Experimental: Drugs were removed, and the cells were washed with PBS and cultured in MSCgo™ Osteogenic Differentiation medium (Biological Industries, Kibbutz Beit-Haemek, Israel)^31. The media changed twice per week for 14-21 days. Next, the cells were fixed with ice-cold 70% ethanol at −20° C. for 1 hour. After washing with water for three times, the cells were then stained with 40 mM Alizarin Red S (ARS) (pH 4.2) at room temperature for 10 minutes. The cells were then washed with PBS for five times. An Olympus CK-40 microscope was used to take the images. For quantification, the dye was extracted with 10% (w/v) cetylpyridinium chloride (Sigma 0732) in sodium phosphate buffer (pH 7.0) for 15 minutes, and the O.D. at 570 nm was measured.

[7] = test system: hESCs; assay: PI/Annexin V flow cytometry cell death assay, hESCs; assay type: cell-based, human; conditions: 24 hours; FIG. 2A: 1.25 μM digoxin, 2.5 μM lanatoside C
Experimental: For cell death assay, Propidium iodine/Annexin V assay was performed according to the manufacturer's instruction (Alexa Fluor® 488 Annexin V/Dead Cell Apoptosis Kit; Life Technologies). In brief, live cells were dissociated with trypsin and incubated with Annexin V antibody and PI working solution for 15 minutes. We added 400 μl 1× annexin binding buffer and analyzed the stained cells by FACSCanto™ (Becton Dickinson, Franklin Lakes, NJ, USA). For analyzing the phenotypic signature of MSCs we used a Stemflow™ hMSC analysis kit (BD Biosciences) and FACSCanto™. All flow data was analyzed by FACSDivam software (BD Biosciences) and FlowJo™ (FlowJo, LLC, Ashland, USA).

[8] = test system: cleaved PARP, caspase-3, caspase-7 in hBMMSCs; assay: Western blot of apoptotic markers, hBMMSCs; assay type: cell-based, human; conditions: 2.5 μM, 12 hours
Experimental: as §1

Row | SMILES | cytotoxicity (LDH release) in hiPSCs [1] | LDH assay positive, hiPSCs [1] | survival of hBMMSCs (bright field morphology) [2] | cleaved form of apoptosis markers in hESC-MSCs [3] | tumor (teratoma) weight [4] | cell death in hESCs (Alamar blue, relative cell number) [5] | differentiation ability of hBMMSCs into osteoblasts [6] | cell death (PI/Annexin V) in hESCs [7] | cleaved form of apoptosis markers in hBMMSCs [8]
1 | C[C@H]1O[C@@H](O[C@H]2[C@@H](O)C[C@H](O[C@H]3[C@@H](O)C[C@H](O[C@H]4CC[C@@]5(C)[C@H](CC[C@@H]6[C@@H]5C[C@@H](O)[C@]5(C)[C@@H](C7=CC(=O)OC7)CC[C@]65O)C4)O[C@@H]3C)O[C@@H]2C)C[C@H](O)[C@@H]1O [Digoxin, digoxin] | induced cytotoxicity | +++ (more than 70% positive cells) | did not affect the survival | no cleaved form of the apoptosis markers was detected | significantly decreased | dose dependent manner | neither digoxin nor lanatoside C affected the differentiation ability | 70% | no cleaved form of the apoptosis markers was detected
2 | CC(=O)O[C@H]1C[C@H](O[C@H]2[C@@H](O)C[C@H](O[C@H]3[C@@H](O)C[C@H](O[C@H]4CC[C@@]5(C)[C@H](CC[C@@H]6[C@@H]5C[C@@H](O)[C@]5(C)[C@@H](C7=CC(=O)OC7)CC[C@]65O)C4)O[C@@H]3C)O[C@@H]2C)O[C@H](C)[C@H]1O[C@@H]1O[C@H](CO)[C@@H](O)[C@H](O)[C@H]1O [Lanatoside C, lanatoside C] | induced cytotoxicity | +++ (more than 70% positive cells) | did not affect the survival | no cleaved form of the apoptosis markers was detected | significantly decreased | dose dependent manner | neither digoxin nor lanatoside C affected the differentiation ability | 82% | no cleaved form of the apoptosis markers was detected
